Data set [1] is described as follows: In vitro stability experiment of cell-penetrating peptides in human plasma.
Protocol: (§1) 5 μL of stock solution (10 mM) was diluted with 495 μL of 0.05 M sodium phosphate buffer to 100 μM of dosing solution. The final concentration of tested drug for incubation was 10 μM.
(§2) A certain volume (e.g., 27 μL or 24 μL) of plasma was added into a 96-well plate. An appropriate volume of the internal standard working solution (e.g., 150 μL) was immediately added to precipitate. […] This was performed in duplicate.
(§3) Then, an appropriate amount of plasma (e.g., 27 μL or 24 μL) was added at the designed time points (e.g., 5 min, 15 min, 30 min, 60 min, and 120 min, etc.), and the parallel replicate wells were performed at each time point. […] The reaction was terminated by adding an appropriate amount of internal standard working solution (e.g., 150 μL) at the end of the time, and the mixture was mixed thoroughly.
(§4) The mixture was centrifuged at 4000 rpm for 15 min. A certain amount of the supernatant was taken, mixed with a certain amount of water, and then subjected to LC/MS/MS analysis. LC-MS detection conditions were as follows: • Chromatography column: YMC Triart C18, 50*3.0 mm, 2.1 μm. • Mobile phase: Gradient elution was performed using water (0.1% formic acid)-acetonitrile according to the table below.
(§5) The relative content of drug at each time point was calculated using the initial 0 point as 100%. The half-life of the drug was calculated by plotting “relative drug content” against “incubation time” using GraphPad Prism 5 software.
A further data set addresses PDZ1-2 of PSD95 (Homo sapiens, UniProt P78352). Put plainly: Fluorescence polarization competition binding assay of PDZ1-2 with probe 5-FAM-NA-1. Background: Fluorescence polarisation rises when a labelled molecule tumbles more slowly, as on binding a larger partner.
Another data set is described as follows: in vitro. Particulars: human, plasma.
Data set [2] in a line: Toxicological experiment: serum UREA and CREA after 5 days of i.v. dosing. The format is in vivo, SD rats. Here is the method:
The compounds of Examples 1-8 were accurately weighed into suitable EP tubes, and the vehicle (saline) was added to formulate a solution of a concentration of 15 mg/mL. The solution was filtered using a 0.2 μm filter for future use.
A total of 18 male SD rats of 6-7 weeks of age were used for test. After the animal quarantine and acclimatization period, the animals were randomly divided into 6 groups according to their body weights measured before grouping, vehicle control group (saline) as well as example compounds groups, 3 animals/group. Using the above prepared solution, the animal was administered intravenously via the tail vein at a dosage of 30 mg/kg and a dosing volume of 2 mL/kg. The dosing volume for each animal was calculated according to the body weight. Administration was performed once daily for 5 consecutive days. After 2 h of administration on day 5, the animals were deeply anesthetized by intraperitoneal injection of sodium pentobarbital. The thoracic cavity was opened, and blood was collected from the abdominal aorta into blood collection tubes containing inert separation gel and coagulant. The serum was collected by centrifugation (4000 rpm, 10 min) after about 1 h of resting. The concentrations of UREA and CREA in the serum were detected using a biochemical analyzer. The percentage change of each example compound relative to the vehicle control group was calculated using the formula: %=(Concentration of example compound−Concentration of vehicle control group)/Concentration of vehicle control group.

The nature of data set [3]: In vitro plasma stability experiment (compounds), without or with tPA. To be noted: human, 37° C., initial concentration 10 μM.
Protocol: • Plasma: Human plasma is commercially available. • Reagents: DMSO (dimethyl sulfoxide), disodium hydrogen phosphate, sodium dihydrogen phosphate, methanol, formic acid, and propranolol (internal standard) are commercially available. • Instrument: AB SCIEX QTRAP 5500+.
as §1, §2, §3, §4, §5
[4] abbreviates: plasma, With tPA T1/2, cell-penetrating peptide, human plasma, initial concentration 10 μM, with tPA.
[5] abbreviates: plasma, Without tPA T1/2, cell-penetrating peptide, human plasma, initial concentration 10 μM, without tPA.
Setting [6] is: With tPA T1/2, human plasma, with rt-PA […].
Setting [7] is: Without tPA T1/2, human plasma, without tPA.
[8] abbreviates: male SD rats, 30 mg/kg i.v. once daily for 5 days, serum 2 h after dosing on day 5.

Structures are written as SMILES. Square brackets hold non-standard residues; d marks the D form. Peptide text beside a SMILES is read from it. Arg(Me) = CNC(=N)NCCC[C@H](N)C(=O)O

One may read the half-life as the time in which the quantity being followed falls by half. Higher therefore signals slow loss. By IC50 is commonly meant the concentration needed to halve the response being measured.

Sequence of PDZ1-2 of PSD95 (P78352 61-249 limits assumed): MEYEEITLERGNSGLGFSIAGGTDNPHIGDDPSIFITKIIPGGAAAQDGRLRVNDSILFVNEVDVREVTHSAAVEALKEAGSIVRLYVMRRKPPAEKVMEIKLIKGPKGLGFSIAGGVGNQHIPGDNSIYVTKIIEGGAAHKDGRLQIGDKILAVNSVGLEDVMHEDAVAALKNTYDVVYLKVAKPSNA

`CNC(=N)NCCC[C@H](NC(=O)[C@H](CCC(N)=O)NC(=O)[C@@H](CCCNC(=N)N)NC(=O)[C@H](CCCNC(=N)N)NC(=O)[C@H](CCCCN)NC(=O)[C@H](CCCCN)NC(=O)[C@@H](CCCNC(=N)N)NC(=O)CNC(=O)[C@@H](N)Cc1ccc(O)cc1)C(=O)N[C@@H](CCCNC(=N)N)C(=O)N[C@@H](CCCNC(=N)N)C(=O)O` [TAT-5]: the half-life at 10 μM in data set [1] (setting [4]) is 12.3 h; in data set [1] (setting [5]), above 33.3 h.
At PDZ1-2 of PSD95, `CC[C@H](C)[C@H](NC(=O)[C@H](CO)NC(=O)[C@H](CO)NC(=O)[C@H](CC(C)C)NC(=O)[C@@H](CCCCN)NC(=O)[C@H](CCCNC(=N)N)NC(=O)[C@H](CCCNC(=N)N)NC(=O)[C@@H](CCCNC(=N)N)NC(=O)[C@H](CCC(N)=O)NC(=O)[C@@H](CCCNC(=N)N)NC(=O)[C@H](CCCNC(=N)N)NC(=O)[C@H](CCCCN)NC(=O)[C@H](CCCCN)NC(=O)[C@@H](CCCNC(=N)N)NC(=O)CNC(=O)[C@@H](N)Cc1ccc(O)cc1)C(=O)N[C@@H](CCC(=O)O)C(=O)N[C@@H](CO)C(=O)N[C@@H](CC(=O)O)C(=O)N[C@H](C(=O)O)C(C)C` [NoNo-42, reference compound] (H-YG[dR]KKR[dR]Q[dR]RR[dK]LSSIESDV-OH; N-terminus and C-terminus assumed) gave an IC50 of 9.71 µM. In the data set “in vitro”, this molecule gave a half-life at 10 μM of 6.88 h. Further, in data set [2] (rat, in vivo, iv, 30 mg/kg), the “CREA, percentage change compared to vehicle control group” value is recorded as 308.8% and the “UREA, percentage change compared to vehicle control group” value came out at 237.9%.
Take `N=C(N)NCCC[C@H](NC(=O)[C@H](CCCNC(=N)N)NC(=O)[C@H](CCCNC(=N)N)NC(=O)[C@H](CCC(N)=O)NC(=O)[C@H](CCCNC(=N)N)NC(=O)[C@H](CCCNC(=N)N)NC(=O)[C@H](CCCCN)NC(=O)[C@H](CCCCN)NC(=O)[C@H](CCCNC(=N)N)NC(=O)CNC(=O)[C@@H](N)Cc1ccc(O)cc1)C(=O)O` [TAT-1, reference compound]: the half-life at 10 μM in data set [1] (setting [5]) was determined as 1.52 h.
For the molecule `CC[C@H](C)[C@H](NC(=O)CCOCCOCCN(CCOCCOCCC(=O)N[C@H](C(=O)N[C@@H](CCC(=O)O)C(=O)N[C@H](C(=O)N[C@@H](CC(=O)O)C(=O)N[C@H](C(=O)O)C(C)C)[C@@H](C)O)[C@@H](C)CC)C(=O)[C@H](CCCNC(=N)N)NC(=O)[C@H](CCCNC(=N)N)NC(=O)[C@@H](CCCNC(=N)N)NC(=O)[C@H](CCC(N)=O)NC(=O)[C@@H](CCCNC(=N)N)NC(=O)[C@H](CCCNC(=N)N)NC(=O)[C@H](CCCCN)NC(=O)[C@H](CCCCN)NC(=O)[C@@H](CCCNC(=N)N)NC(=O)CNC(=O)[C@@H](N)Cc1ccc(O)cc1)C(=O)N[C@@H](CCC(=O)O)C(=O)N[C@H](C(=O)N[C@@H](CC(=O)O)C(=O)N[C@H](C(=O)O)C(C)C)[C@@H](C)O` [Compound 43], the half-life in the data set “in vitro” (With tPA T1/2, human plasma, 37° C., initial concentration 10 μM, with rt-PA […]) is 20.5 h; in the data set “in vitro” (Without tPA T1/2, human plasma, 37° C., initial concentration 10 μM, without tPA) it was above 33.3 h.
Turning to `CC[C@H](C)[C@H](NC(=O)[C@H](CO)NC(=O)[C@H](CO)NC(=O)[C@H](CC(C)C)NC(=O)[C@@H](CCCCN)NC(=O)[C@H](CCCNC(=N)N)NC(=O)[C@H](CCCNC(=N)N)NC(=O)[C@H](CCCNC(=N)NC)NC(=O)[C@H](CCC(=O)O)NC(=O)[C@@H](CCCNC(=N)N)NC(=O)[C@H](CCCNC(=N)N)NC(=O)[C@H](CCCCN)NC(=O)[C@H](CCCCN)NC(=O)[C@](C)(CCCNC(=N)N)NC(=O)CNC(=O)[C@@H](N)Cc1ccc(O)cc1)C(=O)N[C@@H](CCC(=O)O)C(=O)N[C@@H](CO)C(=O)N[C@@H](CC(=O)O)C(=O)N[C@H](C(=O)O)C(C)C` (relative stereo) [Compound I15], the IC50 on PDZ1-2 of PSD95 came out at 7.89 µM. The figures for the half-life in the data set “in vitro” (With tPA T1/2) and in “in vitro” (Without tPA T1/2) were 27.2 h and above 33.3 h, respectively.
With `CNC(=N)NCCC[C@H](NC(=O)[C@H](CCC(=O)O)NC(=O)[C@@H](CCCNC(=N)N)NC(=O)[C@H](CCCNC(=N)N)NC(=O)[C@H](CCCCN)NC(=O)[C@H](CCCCN)NC(=O)[C@@H](CCCNC(=N)N)NC(=O)CNC(=O)[C@@H](N)Cc1ccc(O)cc1)C(=O)N[C@@H](CCCNC(=N)N)C(=O)N[C@@H](CCCNC(=N)N)C(=O)O` [TAT-6], the values for the half-life at 10 μM in data set [1] (setting [4]) and in data set [1] (setting [5]) were 4.3 h and 2.83 h, respectively.
With `CC[C@H](C)[C@H](NC(=O)[C@H](CO)NC(=O)[C@H](CO)NC(=O)[C@H](CC(C)C)NC(=O)[C@@H](CCCCN)NC(=O)[C@H](CCCNC(=N)N)NC(=O)[C@H](CCCNC(=N)N)NC(=O)[C@H](CCCNC(=N)NC)NC(=O)[C@H](CCC(N)=O)NC(=O)[C@@H](CCCNC(=N)N)NC(=O)[C@H](CCCNC(=N)N)NC(=O)[C@H](CCCCN)NC(=O)[C@H](CCCCN)NC(=O)[C@](C)(CCCNC(=N)N)NC(=O)CNC(=O)[C@@H](N)Cc1ccc(O)cc1)C(=O)N[C@@H](CCC(=O)O)C(=O)N[C@@H](CO)C(=O)N[C@@H](CC(=O)O)C(=O)N[C@H](C(=O)O)C(C)C` (relative stereo) [Compound I13], the half-life at 10 μM in data set [3] (setting [6]) worked out at 14.5 h; in data set [3] (setting [7]) it was 10.7 h. This molecule also displayed an IC50 at PDZ1-2 of PSD95 of 6.33 µM.
For `CC[C@H](C)[C@H](NC(=O)[C@H](CO)NC(=O)[C@H](CO)NC(=O)[C@H](CC(C)C)NC(=O)[C@@H](CCCCN)NC(=O)[C@H](CCCNC(=N)N)NC(=O)[C@H](CCCNC(=N)N)NC(=O)[C@H](CCCNC(=N)NC)NC(=O)[C@H](CCC(=O)O)NC(=O)[C@@H](CCCNC(=N)N)NC(=O)[C@H](CCCNC(=N)N)NC(=O)[C@H](CCCCN)NC(=O)[C@H](CCCCN)NC(=O)[C@@H](CCCNC(=N)N)NC(=O)CNC(=O)[C@@H](N)Cc1ccc(O)cc1)C(=O)N[C@@H](CCC(=O)O)C(=O)N[C@@H](CO)C(=O)N[C@@H](CC(=O)O)C(=O)N[C@H](C(=O)O)C(C)C` [Compound I1] (H-YG[dR]KKR[dR]E[Arg(Me)]RR[dK]LSSIESDV-OH), the half-life amounted to 9.18 h in the data set “in vitro” (With tPA T1/2) and 18.6 h in the data set “in vitro” (Without tPA T1/2).
With `CC[C@H](C)[C@H](NC(=O)CCOCCOCCN(CCOCCOCCC(=O)N[C@H](C(=O)N[C@@H](CCC(=O)O)C(=O)N[C@H](C(=O)N[C@@H](CC(=O)O)C(=O)N[C@H](C(=O)O)C(C)C)[C@@H](C)O)[C@@H](C)CC)C(=O)[C@H](CCCNC(=N)N)NC(=O)[C@H](CCCNC(=N)N)NC(=O)[C@@H](CCCNC(=N)N)NC(=O)[C@H](CCC(=O)O)NC(=O)[C@@H](CCCNC(=N)N)NC(=O)[C@H](CCCNC(=N)N)NC(=O)[C@H](CCCCN)NC(=O)[C@H](CCCCN)NC(=O)[C@@H](CCCNC(=N)N)NC(=O)CNC(=O)[C@@H](N)Cc1ccc(O)cc1)C(=O)N[C@@H](CCC(=O)O)C(=O)N[C@H](C(=O)N[C@@H](CC(=O)O)C(=O)N[C@H](C(=O)O)C(C)C)[C@@H](C)O` [Compound 65], the half-life at 10 μM in data set [3] (setting [6]) is 10.5 h; in data set [3] (setting [7]) it was above 33.3 h. In addition, in data set [2] (setting [8]), the “CREA, percentage change compared to vehicle control group” value is −3.3%. Further, the “UREA, percentage change compared to vehicle control group” value in data set [2] (setting [8]) stood at 23.7%.
Take `N=C(N)NCCC[C@H](NC(=O)[C@@H](CCCNC(=N)N)NC(=O)[C@H](CCC(N)=O)NC(=O)[C@@H](CCCNC(=N)N)NC(=O)[C@H](CCCNC(=N)N)NC(=O)[C@H](CCCCN)NC(=O)[C@H](CCCCN)NC(=O)[C@@H](CCCNC(=N)N)NC(=O)CNC(=O)[C@@H](N)Cc1ccc(O)cc1)C(=O)O` [TAT-3] (H-YG[dR]KKR[dR]Q[dR]R-OH): the half-life at 10 μM in data set [1] (plasma) came to 21.7 h; in data set [1] (plasma with added rt-PA), 27.5 h.
Turning to `N=C(N)NCCC[C@H](NC(=O)[C@H](CCCNC(=N)N)NC(=O)[C@@H](CCCNC(=N)N)NC(=O)[C@H](CCC(=O)O)NC(=O)[C@@H](CCCNC(=N)N)NC(=O)[C@H](CCCNC(=N)N)NC(=O)[C@H](CCCCN)NC(=O)[C@H](CCCCN)NC(=O)[C@@H](CCCNC(=N)N)NC(=O)CNC(=O)[C@@H](N)Cc1ccc(O)cc1)C(=O)O` [TAT-4], the half-life at 10 μM in data set [1] (setting [4]) was determined as 14.9 h; in data set [1] (setting [5]), 11.9 h.

The values are drawn from US20260199492A1, “PSD-95 DOMAIN INHIBITOR, AND PREPARATION METHOD THEREFOR AND USE THEREOF” (SHENZHEN SALUBRIS PHARMACEUTICALS CO., LTD, priority 2023, published 2026).
